Reference: patent US20240358692A1, “TREATMENT OF SCLERODERMA” (Aisa Pharma, Inc., priority 2023, published 2024)

Assays:
participants with SSc-RP [1] = experiment: Average pain score recorded during weekly RP attacks (11-point Likert scale); type: in vivo, human; settings: Tadalafil 5 mg (n = 4); Table G
Source text: The absolute change in average pain score (11-point Likert scale) of weekly RP attacks from baseline to the end of each Dosing Period will be a secondary outcome variable. The sponsor-developed participant-informed diary will be used to record data. The average pain score of weekly RP attacks is defined as the total pain scores divided by total number of RP attacks within the last 7 days of each dosing period. Average of the last 7 days of screening assessments will be used as baseline for the analysis of all periods. The variable will be calculated similar to frequency data as before.

participants with SSc-RP [2] = experiment: SHAQ - Visual Analog Scale - Pain; type: in vivo, human
Source text: The standard, validated, patient reported outcome measures tool for SSc patients, the Scleroderma Health Assessment Questionnaire (SHAQ), will be used to assess the participant qualify of life. Details are attached in the Appendix. The participant quality of life will be scored, and a disability index calculated for each questionnaire completed by the patient at Screening and each in-clinic visit. The absolute change in participant quality of life from baseline to the end of each dosing period will be calculated similar to frequency data as before.
The standard, validated, patient reported outcome measures tool for SSc patients, the SHAQ, was collected at the time points specified in the study schedules (FIG. 2 and FIGS. 4A and 4B) to assess the participant's quality of life. The SHAQ included a Raynaud's VAS that will also be reported separately.
Pain on the SHAQ outcome measure on the first line in table F is a composite of all pain experienced in patients with SSc, comprising joint pain, back pain, headache, odynophagia, skin ulcer related discomfort, Raynaud's, and neuropathic pain. Aisa Pharma believes, based on the biologic attributes and actions of cilnidipine that differ from most dihydropyridine calcium channel antagonists that cilnidipine might have direct analgesic effects in certain pain conditions and in fact has been designated to receive evaluation through the […] Preclinical Pain Screening Platform Program to investigate the drug in multiple in vitro and in vivo preclinical models of pain that are validated and predictive of effects in man.

[3] = Modified ITT Population-Part A, Day 12, dose cilnidipine 10 mg, tadalafil 5 mg, alone or combined as labelled
[4] = Tadalafil 5 mg, SSc patients, PP, Part A

## CN1CC(=O)N2[C@H](c3ccc4c(c3)OCO4)c3[nH]c4ccccc4c3C[C@@H]2C1=O [Tadalafil]
Participants with SSc-RP [1]
  Average Pain Score Change From Baseline [Mean (SD)]: 0.37
Participants with SSc-RP [2]; [3]
  Visual Analog Scale-Pain, Change from Baseline, Mean: 1.000
  Visual Analog Scale-Pain, Change from Baseline, Median: 0.800
Participants with SSc-RP [2]; Modified ITT Population-Part A, dose cilnidipine 10 mg, tadalafil 5 mg, alone or combined as labelled
  Visual Analog Scale-Pain, In Clinic Visit (Day 12), Mean: 5.300
Participants with SSc-RP [2]; [4]
  SHAQ VAS Pain, Change from Baseline, Max: 1.50
  SHAQ VAS Pain, Change from Baseline, Mean: 1.000
  SHAQ VAS Pain, Change from Baseline, Median: 0.800
  SHAQ VAS Pain, Change from Baseline, Min: 0.70,
  SHAQ VAS Pain, Change from Baseline, Q1: 0.700,
  SHAQ VAS Pain, Change from Baseline, Q3: 1.500
  SHAQ VAS Pain, Day 12, Max: 9.20
  SHAQ VAS Pain, Day 12, Mean: 5.300
  SHAQ VAS Pain, Day 12, Median: 5.850
  SHAQ VAS Pain, Day 12, Min: 0.30,
  SHAQ VAS Pain, Day 12, Q1: 1.900,
  SHAQ VAS Pain, Day 12, Q3: 8.700
  SHAQ VAS Pain, Percent Change from Baseline, Max: 75.0
  SHAQ VAS Pain, Percent Change from Baseline, Mean: 31.35
  SHAQ VAS Pain, Percent Change from Baseline, Median: 10.81
  SHAQ VAS Pain, Percent Change from Baseline, Min: 8.2,
  SHAQ VAS Pain, Percent Change from Baseline, Q1: 8.24,
  SHAQ VAS Pain, Percent Change from Baseline, Q3: 75.00
